Assay results: paper PMC8146789, “20-Hydroxyecdysone, from Plant Extracts to Clinical Use: Therapeutic Potential for the Treatment of Neuromuscular, Cardio-Metabolic and Respiratory Diseases” (Biomedicines, 2021)
Like-named read-outs stand apart in the source and are kept apart here.

Assays:
[1] = design: method as in PMID 21439380, PMID 33819630; conditions: mice, oral; ref [126],[127]; cited from earlier work
[2] = design: method as in doi:10.1016/0924-977X(96)83007-0; conditions: 7.5–10 mg/day, 1 month; ref [165]; cited from earlier work
[3] = cited from earlier work
[4] = repeated dose toxicity study (26-week); conditions: rat, in vivo; rats, 26-week repeated dose; Biophytis, unpublished data; read-out: No Observed Adverse Effect Level (NOAEL)
Excerpt: (§1) More recently, a purified to pharmaceutical grade 20E (≥97% 20E purity) was used as a drug candidate in preclinical regulatory studies including safety pharmacology, genotoxicity and repeated toxicology in rodents (rats) and non-rodents (dog).

[5] = in vivo; cited from earlier work
[6] = oral; ref [127],[128]; cited from earlier work
[7] = design: method as in doi:10.1055/s-0032-1320272; conditions: overweight, 2 × 50 mg/day; ref [170]; cited from earlier work
[8] = test system: ovariectomized rats; design: method as in Seidlova-Wuttke et al. [57],[94]; conditions: up to 500 mg/kg daily for 3 months, ref Seidlova-Wuttke et al. [57],[94]; cited from earlier work
[9] = test system: ERα; design: method as in PMID 24974955; conditions: ref [54]; cited from earlier work
[10] = cited from earlier work; for dose dependence of plasma levels: increasing doses; for AUC0-t / Cmax / tmax: fasted; for AUC0-t / Cmax: n = 6, (SEM); for tmax: n = 6, (range)
[11] = test system: mice; conditions: ref Ogawa et al. [121], cited from earlier work
[12] = test system: Erβ; design: method as in PMID 24974955; conditions: ref [54]; cited from earlier work
[13] = repeated dose toxicity study (39-week); conditions: dog, in vivo; dogs, 39-week repeated dose; Biophytis, unpublished data; read-out: No Observed Adverse Effect Level (NOAEL)
Excerpt: as §1

[14] = test system: bullfrogs; conditions: up to 600 mg/kg in the lymph sinus, ref [121]; cited from earlier work
[15] = test system: rabbits; conditions: up to 100 mg/kg, ref [121]; cited from earlier work
[16] = genotoxicity (preclinical regulatory studies); conditions: Biophytis, unpublished data
Excerpt: as §1

[17] = 30 days, ref [158], cited from earlier work
[18] = test system: Erβ; design: method as in PMID 18220764; conditions: cited from earlier work
[19] = test system: Giardiasis; design: method as in PMID 12224262; conditions: 5 mg 3× or 4×/day, 10 days; ref [167]; cited from earlier work
[20] = test system: Lambliasis; design: method as in PMID 20614521; conditions: 5 mg 4×/day, 10 days; ref [168]; cited from earlier work
[21] = test system: myostatin gene expression in C2C12 cells; conditions: C2C12 myotubes, ref [103], cited from earlier work
[22] = design: method as in ref [177] = [177]; 177. Dustmukhamedova D.K.H. Kamilovz A.T. The characteristic of energy metabolism disorders and its correction in children with celiac disease Am. J. Med. Medic. Sci. 2020 10 780 783; conditions: children 3–14, 2.5 mg/kg/day, 14 days; ref [177]; cited from earlier work
[23] = test system: Hymenolepiasis; design: method as in PMID 22536744; conditions: 5 mg 3×/day, 2 weeks; ref [169]; cited from earlier work
[24] = design: method as in PMID 15559639; conditions: hepatitis B, 5 mg b.i.d., 30 days; ref [159]; cited from earlier work
[25] = test system: ERα; design: method as in PMID 18220764; conditions: cited from earlier work
[26] = test system: rats; design: method as in ref [121] = [121]; 121. Ogawa S. Nishimoto N. Matsuda H. Pharmacology of ecdysones un vertebrates Invertebrate Endocrinology and Hormonal Heterophylly Burdette W.J. Springer Berlin, Germany 1974 341 344; conditions: ref [121]; cited from earlier work
[27] = humans, ingestion of 434 mg, ref [134]
[28] = humans, single oral intake of 20 mg, RIA and LC-MS
[29] = single oral 100 mg, ref [136],[137]
[30] = single oral 350 mg, ref [136],[137]
[31] = single oral 700 mg, ref [136],[137]
[32] = single oral 1400 mg, ref [136],[137]

For CC(C)(O)CC[C@@H](O)[C@](C)(O)[C@H]1CC[C@@]2(O)C3=CC(=O)[C@@H]4C[C@@H](O)[C@@H](O)C[C@]4(C)[C@H]3CC[C@]12C [20E, 2β,3β,14α,20R,22R,25-hexahydroxy-5β-cholest-7-en-6-one], the “time at which 20E starts to reach the large intestine” value [1] is listed as “ca. 30 min”, the “patients with improvement of libido and sexual activity” value [2] is listed as “Improvement of libido and sexual activity in 75% of patients” and the “total urinary excretion of 20E” value [3, 27] is listed as 5 mg. For the same compound, the “urinary excretion, of the ingested amount” value [3, 27] was “approximately 1%”, the urinary peak level ([3]; humans, ingestion of ca. 15 mg, ref Simon and Koolman [132]) was “approximately 0.5 μM” and the “time of urinary peak of detectable ecdysteroids” value [3, 28] was 3 to 4 h. The “total quantity of detectable ecdysteroids in urine” value [3, 28] was 1 to 2 mg, the “effective half-time of elimination from the blood” value ([3]; in vivo) was 9 h and the “effective half-time of elimination from the urine” value ([3]; in vivo) was 3.3 h. The “time of plasma titre maximum” value ([3]; in vivo) was “ca. 30 min”, the NOAEL at 26 week [4] was 1000 mg/kg and the “time of plasma titre maximum” value [5] was “ca. 30 min”. For the same compound, the bioavailability [6] was “ca. 1%”, the “change in C-reactive protein” value [7] was −38% and the “change in body fat” value [7] was −7.6%. For the same compound, the “change in body weight” value [7] was −1.3%, the “change in total cholesterol” value [7] was −17% and the change in triglycerides [7] was −37%. For the same compound, the “change in waist circumference” value [7] was −3.2%, the muscle increase [7] was “+2.9%” and the detrimental effects [8] was “no stated detrimental effects”. For the same compound, the “activation of ERE reporter gene” value [9] was “could be activated dose dependently”, the “safety profile, adverse events” value ([10]; humans, SAD 100 to 1400 mg, MAD up to 450 mg twice a day for 14 days, ref [180]) was “no serious adverse events during SAD and MAD” and the “dose dependence of plasma levels” value ([10]; humans, oral, ref [136],[137]) was “dose-related and also apparently saturable”. The “dose dependence of plasma levels” value ([10]; humans, oral, ref [136],[137], listed as BIO101) was “increased less that dose-proportionally”, the bioavailability ([10]; humans, oral, ref [180]) was “rather low” and the “share of the urinary excretion within 4 h” value ([10]; humans, single dose, ref [136],[137]) was “half of this was excreted within 4 h”. For the same compound, the “administered 20E excreted in the urine” value ([10]; humans, within 12 h of a single dose, ref [136],[137]) was “About 2%”, the “serum biomarkers of muscular catabolism (myoglobin, CK-MB)” value ([10]; older adults, after 14 days of administration (MAD), ref [180]) was “reduced in subjects administered the highest dose” and the AUC0-t [10, 29] was 767 (31.1) ng·h/mL. The Cmax [10, 29] was 141 (16.6) ng/mL, the tmax [10, 29] was 2.03 (1.00–3.02) h and the AUC0-t [10, 30] was 1924 (40.1) ng·h/mL. For the same compound, the Cmax [10, 30] was 317 (37.9) ng/mL, the AUC0-t [10, 31] was 2578 (22.9) ng·h/mL and the Cmax [10, 31] was 399 (24.7) ng/mL. For the same compound, the tmax [10, 31] was 3.00 (2.00–4.02) h, the AUC0-t [10, 32] was 4148 (15.9) ng·h/mL and the Cmax [10, 32] was 710 (20.2) ng/mL. For the same compound, the tmax [10, 32] was 3.50 (2.00–4.02) h, the LD50 ([11]; i.p.-injected) was 6400 mg/kg and the LD50 ([11]; ingested) was over 9000 mg/kg. The “activation of ERE reporter gene” value [12] was “could be activated dose dependently”, the NOAEL at 39 week [13] was 1000 mg/kg and the effects after administration [14] was “no effects were seen”. For the same compound, the effects after administration [15] was “no effects were seen”, the genotoxic effects [16] was “no genotoxic effects” and the sexual function output ([17]; 5 mg 3×/day, age 40–60 M) was “Improvement of sexual function during recovery from myocardial infarction”. For the same compound, the sexual function output ([17]; 5 mg, 2×/day) was “Improved sperm quality and copulative function in patients with disturbed spermatogenesis as a complication of urologic diseases”, the “binding to nuclear receptor” value [18] was “negative” and the “patients with parasite elimination” value [19] was “Parasite elimination in 68.7% of patients”. The parasite elimination [20] was “Therapy eliminated most parasites within 10 days”, the “concentration with significant difference from control in myostatin gene expression” value ([21]; 0.001 to 10 μM tested) was 1 to 10 µM and the myostatin gene expression ([21]; 6 h treatment) was “mimics the effect of IGF-1 in a dose-dependent manner”. For the same compound, the “output of celiac disease study” value [22] was “Reduction in symptoms Improvement of energy metabolism”, the parasitological efficacy [23] was 36.4% and the symptoms [23] was “Reduction in symptoms”. For the same compound, the liver state [24] was “In case of hepatitis B, improvement of liver state”, the “binding to nuclear receptor” value [25] was “negative” and the “sex hormonal activity, anti-inflammatory or anabolic effects” value [26] was “did not have”.
